Source: patent US20250090510A1, “eIF4G1-eIF1 INHIBITORS AND USE THEREOF” (YEDA RESEARCH AND DEVELOPMENT CO. LTD., priority 2022, published 2025)

Tests used:
[1] = target: T1, eIF4G1 binding to eIF4E-cap complex (Homo sapiens, UniProt Q04637); test: Cap-binding assay on m7GTP cap-analog agarose beads; type: cell-based; conditions: HEK293T; i14G1-10 20 μM, i14G1-12 10 μM; 4 hours
T1 construct: endogenous in cells; host or cells: HEK293T
Procedure: FIGS. 2A-C: The effect of i14G1-10 and i14G1-12 on eIF1-eIF4G1 and eIF4E-eIF4G1 complexes. (2A-B) HA-eIF1 and HA-eIF4E were each transfected into HEK293T cells and 48 h after transfection cells were treated with DMSO or i14G1-10 (2A) or i14G1-12 (2B) for 4 h, followed by immunoprecipitation of HA-eIF1 or HA-eIF4E using anti-HA-agarose beads. Western blot was run to check co-immunoprecipitation of endogenous eIF4G1 with HA-eIF1 or HA-eIF4E. The graphs represent the co-immunoprecipitation of eIF4G1 with HA-eIF1 (right) or HA-eIF4E (left). Co—IP data shown as mean±SEM of 4-7 independent experiments. The asterisks denote statistically significant difference compared to DMSO, according to Student's t-tests (one-tailed, paired). *p<0.05. (2C) HEK293T cells were treated with DMSO, i14G1-10, or i14G1-12 for 4 h, followed by cell lysis. Respective cell lysates were incubated with cap analog (γ-Aminohexyl-m7GTP) beads for 2 h to precipitate bound eIF4E. Western blot was performed to check co-precipitation of eIF4G1 along with eIF4E on the cap-analog beads. The graph represents the binding fraction of eIF4G1 and eIF4E to the cap-analog beads (mean±SEM) with DMSO (black), i14G1-10 (blue), and i14G1-12 (red), n=6. The asterisks denote statistically significant difference compared to DMSO, according to Student's t-tests (one-tailed, paired). *p<0.05; **p<0.01.
Cap-binding Assay. […]

HEK293T cells = test: Puromycin labeling (puromycin-incorporation assay); type: cell-based; conditions: Homo sapiens, HEK-293T; 3 h treatment, puromycin 10 μg/ml 5 minutes; read-out: IC-50, nascent polypeptide puromycin labeling
Procedure: FIGS. 3A-F: i14G1-10 and i14G1-12 inhibit mRNA translation and sensitize cell survival of eIF4G1 and eIF1 depleted cells. (3A) In-vitro translation using rabbit reticulocyte lysate which was pre-incubated with different concentrations of i14G1-10 or i14G1-12 for 10 minutes followed by the addition of capped firefly luciferase mRNA. After 90 minutes at 30° C., the luminescence signal was measured and the IC50 was calculated. The data represents mean±SEM of 6 independent repeats. (3B) HEK293T cells were treated with DMSO (vehicle control), and sub-cytotoxic concentrations of i14G1-10 (20 μM) and i14G1-12 (10 μM) for 3h. Cell lysates were then subjected to sucrose gradient sedimentation to obtain polysome profiles. (3C) HEK293T cells were treated with the indicated concentrations of i14G1-10 and i14G-12 for 3 h, followed by the addition of puromycin (10 μg/ml) for 5 minutes, after which cells were lysed and analyzed by western blot using an anti-puromycin antibody and anti-GAPDH antibody that serves as a loading control. […] The calculated IC-50 is shown. […] The calculated IC-50 is shown. (3E) The graphs represent cell viability of the indicated cell lines in the presence of increasing concentrations of i14G1-10 and i14G1, analyzed by Luminescent Cell Viability Assay. […]

T1 sequence (Q04637 whole entry): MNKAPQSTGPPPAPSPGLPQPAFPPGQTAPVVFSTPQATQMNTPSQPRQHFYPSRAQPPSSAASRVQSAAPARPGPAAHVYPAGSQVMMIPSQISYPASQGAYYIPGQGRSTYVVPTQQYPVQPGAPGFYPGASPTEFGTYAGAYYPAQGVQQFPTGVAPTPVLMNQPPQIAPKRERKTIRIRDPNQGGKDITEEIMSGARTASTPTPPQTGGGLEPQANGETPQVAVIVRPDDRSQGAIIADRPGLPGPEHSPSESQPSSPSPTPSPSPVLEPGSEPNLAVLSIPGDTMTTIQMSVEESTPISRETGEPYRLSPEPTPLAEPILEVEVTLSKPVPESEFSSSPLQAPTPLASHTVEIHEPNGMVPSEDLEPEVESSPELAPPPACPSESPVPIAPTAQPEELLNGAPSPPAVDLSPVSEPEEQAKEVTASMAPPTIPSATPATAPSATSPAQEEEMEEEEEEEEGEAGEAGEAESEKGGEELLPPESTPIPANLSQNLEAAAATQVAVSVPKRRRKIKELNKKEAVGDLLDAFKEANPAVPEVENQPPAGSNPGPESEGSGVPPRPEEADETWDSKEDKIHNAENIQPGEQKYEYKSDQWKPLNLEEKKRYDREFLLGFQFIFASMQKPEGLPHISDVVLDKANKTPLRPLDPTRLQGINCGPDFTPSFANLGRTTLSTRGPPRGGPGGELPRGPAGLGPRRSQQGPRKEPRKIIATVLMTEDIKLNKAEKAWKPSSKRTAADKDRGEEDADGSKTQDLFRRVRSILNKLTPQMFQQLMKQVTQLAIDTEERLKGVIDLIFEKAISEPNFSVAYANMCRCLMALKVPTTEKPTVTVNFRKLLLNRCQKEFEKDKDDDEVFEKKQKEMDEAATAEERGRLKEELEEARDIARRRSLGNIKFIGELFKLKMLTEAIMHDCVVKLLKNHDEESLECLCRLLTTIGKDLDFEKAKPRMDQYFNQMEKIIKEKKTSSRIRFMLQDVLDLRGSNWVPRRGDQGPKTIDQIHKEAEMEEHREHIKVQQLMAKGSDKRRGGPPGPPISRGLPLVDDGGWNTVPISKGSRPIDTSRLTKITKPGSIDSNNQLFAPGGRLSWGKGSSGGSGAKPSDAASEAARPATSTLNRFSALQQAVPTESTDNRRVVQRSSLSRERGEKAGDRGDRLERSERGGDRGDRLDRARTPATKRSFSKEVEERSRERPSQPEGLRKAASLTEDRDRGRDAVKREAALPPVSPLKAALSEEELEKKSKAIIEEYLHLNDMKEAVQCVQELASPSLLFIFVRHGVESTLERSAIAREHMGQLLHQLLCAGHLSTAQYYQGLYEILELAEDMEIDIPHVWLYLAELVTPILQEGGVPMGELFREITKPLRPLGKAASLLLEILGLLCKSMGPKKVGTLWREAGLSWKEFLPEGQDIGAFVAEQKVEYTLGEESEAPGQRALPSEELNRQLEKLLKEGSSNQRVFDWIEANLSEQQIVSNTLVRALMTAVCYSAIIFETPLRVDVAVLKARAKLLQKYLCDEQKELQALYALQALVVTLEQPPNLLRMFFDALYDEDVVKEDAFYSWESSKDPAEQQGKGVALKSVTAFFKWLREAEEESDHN
T1 sequence (P06730 2-217 partner limits assumed): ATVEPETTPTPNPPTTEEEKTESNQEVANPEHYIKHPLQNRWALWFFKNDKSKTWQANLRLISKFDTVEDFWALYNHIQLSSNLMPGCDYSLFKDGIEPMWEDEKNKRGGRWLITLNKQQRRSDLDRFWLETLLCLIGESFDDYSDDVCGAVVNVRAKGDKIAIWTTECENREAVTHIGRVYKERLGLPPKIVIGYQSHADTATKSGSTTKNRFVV

Q: How did the “enhancement of eIF4G1 binding to eIF4E-cap complex” value [1] turn out when `Cn1ccnc1S/C(=C/C=C(C#N)C#N)c1ccc(Cl)cc1` [i14G1-12] was run?
A: no significant effect

Q: What about the IC50 (HEK293T cells) of the same compound?
A: 4.96 µM

Q: How did the “enhancement of eIF4G1 binding to eIF4E-cap complex” value [1] turn out when `O=C(/C=C/Sc1ccc(C(F)(F)F)cn1)c1ccccc1` [i14G1-10] was run?
A: 1.8 folds

Q: And the IC50 (HEK293T cells)?
A: 20.4 µM
